Columns and labels:
PANC1 cells [1] = assay: MTT-based viability assay; assay type: cell-based, human; conditions: for IC50: Homo sapiens
Protocol: (§1) MTT-based assessment of metabolic activity involved seeding approximately 2000 cells into 96-well plates. These cells were subsequently incubated with treatment agents for two days. On day 4, the cells were subjected to staining with 0.5 mg/mL thiazolyl blue tetrazolium bromide (M5655, Sigma). The determination of metabolic activity was based on the measurement of optical density at 562 nm. For the evaluation of proliferation activity using the EdU assay, around 1000 cells were seeded into 96-well plates. A fluorescence-based cell proliferation kit (Click-iT™ EdU Alexa Fluor™ 488 Imaging Kit; Thermo Fisher, Waltham, MA, USA) was employed, following the manufacturer’s protocol. This kit facilitated the detection of EdU incorporation as an indicator of proliferating cells.

[2] = test system: human PDAC tissue fragments; assay: Ex vivo PDAC tissue fragment assay; assay type: cell-based
Source text: The utilization of human pancreatic cancer tissue was approved by the Indiana University Institutional Review Board (1911155674), and the tissue samples were sourced from the Indiana University Simon Comprehensive Cancer Center Tissue Procurement Core. A freshly procured pancreatic cancer tissue, weighing approximately 1 g, was manually sectioned into small fragments (ranging from 0.5 to 0.8 mm in length) using a scalpel. These fragments were subsequently cultured in DMEM supplemented with 10% FBS and antibiotics for one day. Following this initial incubation, the described conditioned medium (CM) was introduced and maintained for an additional four days, during which any alterations in fragment size were assessed.

Snail = assay: Western blot analysis; assay type: cell-based, human; conditions: 25 μg/mL P04
Protocol: (§2) Cell lysis was achieved using RIPA lysis buffer (sc-24948, Santa Cruz Biotech, Dallas, TX, USA), supplemented with protease inhibitors (PIA32963, Thermo Fisher), and phosphatase inhibitors (2006643, Calbiochem, Billerica, MA, USA). Subsequently, proteins were separated using 10–15% SDS gels (Bio-Rad Laboratories, Hercules, CA, USA) and then transferred onto polyvinylidene difluoride membranes (IPVH00010, Millipore, Billerica, MA, USA). The membrane was first incubated with primary antibodies, followed by secondary antibodies (7074S/7076S, Cell Signaling, Danvers, MA, USA). Antibodies against ALDOA, Snail, p-Src, Src, cleaved caspase 3, caspase 3 (Cell Signaling), and K-Ras (Santa Cruz Biotech) were employed, with β-actin (Sigma) serving as a control. Protein levels were determined utilizing the Super-Signal West Femto Maximum Sensitivity Substrate (PI34096, Thermo Fisher), and signal intensities were quantified using a luminescent image analyzer (LAS-3000, Fuji Film, Tokyo, Japan).

cleaved caspase 3 = assay: Western blot analysis; assay type: cell-based, human; conditions: 25 μg/mL P04
Protocol: as §2

p-Src = assay: Western blot analysis; assay type: cell-based, human; conditions: 25 μg/mL P04
Protocol: as §2

K-Ras = assay: Western blot analysis; assay type: cell-based, human
Protocol: as §2

ALDOA = assay: Western blot analysis; assay type: cell-based, human
Protocol: as §2

PANC1 cells [3] = assay: Wound-healing scratch assay (motility); assay type: cell-based, human; conditions: 25 μg/mL peptide, 0 h vs 24 h
Protocol: To analyze the two-dimensional migratory behavior of PANC cells, a wound-healing scratch assay was employed to assess the change in the scratched area. Around 3 × 10^5 cells were seeded into 12-well plates on day 1. On day 2, a scratch was carefully created on the cell layer using the tip of a plastic pipette. The cells were then rinsed with DMEM to eliminate any detached cells. Images of the cell-free areas were captured at both 0 h and 24 h using a light microscope (40× magnification). The sizes of the cell-free zones were subsequently quantified using Image J (v1.5.4f).

PA03C cells = assay: MTT-based viability assay; assay type: cell-based, human; conditions: 25 μg/mL peptide, incubated two days, vs control
Protocol: as §1

PAN198 cells = assay: MTT-based viability assay; assay type: cell-based, human; conditions: 25 μg/mL peptide, incubated two days, vs control
Protocol: as §1

PANC1 cells [4] = assay: EdU proliferation assay; assay type: cell-based, human; conditions: 25 μg of P04
Protocol: as §1

MSCs = assay: MTT-based viability of MSCs; assay type: cell-based, mice; conditions: P04; assay not specified, no data shown
Protocol: Human pancreatic ductal adenocarcinoma (PDAC) cell lines including PANC1 (ATCC, Manassas, VA, USA), PANC198, and Pa03C (sourced from Indiana University Simon Comprehensive Cancer Center, Indianapolis, IN, USA) were cultured in DMEM (10-013-CV, Corning Inc., Corning, NY, USA). The breast cancer cell lines MDA-MB-231 and MDA-MB-436 (ATCC) were grown in RPMI-1640 medium (Gibco, Carlsbad, CA, USA). The culture media for all cell lines were supplemented with 10% fetal bovine serum and antibiotics (100 units/mL penicillin and 100 µg/mL streptomycin; Life Technologies, Grand Island, NY, USA). Jurkat T lymphocytes (ATCC) were cultured in RPMI-1640 medium (10-040-CV, Corning). Murine MSCs derived from the bone marrow of C57BL/6 mice were cultured in DMEM. All cell cultures were maintained at 37 °C with 5% CO2. The overexpression of ALDOA was accomplished by transfecting its plasmids (109,854; Addgene, Cambridge, MA, USA), while blank plasmids (FLAG-HA-pcDNA3.1; Addgene) were employed as controls.
MTT-based assessment of metabolic activity involved seeding approximately 2000 cells into 96-well plates. These cells were subsequently incubated with treatment agents for two days. […] A fluorescence-based cell proliferation kit (Click-iT™ EdU Alexa Fluor™ 488 Imaging Kit; Thermo Fisher, Waltham, MA, USA) was employed, following the manufacturer’s protocol. […]

PANC1 cells [5] = assay: Transwell invasion assay; assay type: cell-based, human; conditions: 25 μg of P04
Protocol: To assess the invasive potential of tumor cells, a 12-well plate and transwell chambers (353,182, Thermo Fisher) featuring 8-µm pore size were employed. The transwell chambers were pre-coated with 300 µL of Matrigel (100 µg/mL), followed by the addition of 500 µL of serum-free medium. Afterward, the chambers were rinsed three times with a serum-free medium. Subsequently, approximately 7 × 10^4 cells in 300 µL of serum-free DMEM were introduced into the upper chamber, while 800 µL of the conditioned medium (CM) was added to the lower chamber. Upon completion of the experiment, cells that had invaded the lower side of the membrane were fixed and stained using methanol and crystal violet. Utilizing an inverted optical microscope (100×), five randomly selected images were captured. From these images, the average count of stained cells, serving as an indicator of the invasion capacity, was determined.

[6] = PANC-1, chemotherapeutic agent alone
[7] = PANC-1, chemotherapeutic agent together with 25 μg/mL P04
[8] = following administration of rhALDOA

Question: With `O=c1[nH]cc(F)c(=O)[nH]1` [5-Flu, 5-fluorouracil] as the molecule, how does the IC50 (PANC1 cells [1]; [6]) read?
Answer: 3300 nM

Question: What about the IC50 (PANC1 cells [1]; [7]) of the same molecule?
Answer: 1600 nM

Question: And the PDAC fragment size ([2]; 10 μM 5-Flu alone, 96 h, n = 8)?
Answer: reduction

Question: `Nc1ccn([C@@H]2O[C@H](CO)[C@@H](O)C2(F)F)c(=O)n1` [gemcitabine] was tested. Which IC50 (PANC1 cells [1]; [6]) did it give?
Answer: 1000 nM

Question: And the IC50 (PANC1 cells [1]; [7])?
Answer: 800 nM

Question: How did the Snail level (Snail; PAN198 cells) turn out when “IGEHTPSALAIMENANVLAR [P04, anticancer peptide derived from aldolase A (ALDOA)]” was run?
Answer: downregulation

Question: And the Snail level (Snail; PANC1 cells)?
Answer: downregulation

Question: And the “cleaved caspase 3 level” value (cleaved caspase 3; PAN198 cells)?
Answer: increase

Question: And the “cleaved caspase 3 level” value (cleaved caspase 3; PANC1 cells)?
Answer: elevation

Question: What about the p-Src level (p-Src; PAN198 cells) of the same molecule?
Answer: downregulation

Question: And the p-Src level (p-Src; PANC1 cells)?
Answer: downregulation

Question: And the K-Ras level (K-Ras; PANC1 cells, 25 μg/mL P04)?
Answer: discernible reduction

Question: What about the ALDOA level (ALDOA; PANC1 cells, 25 μg/mL P04) of the same molecule?
Answer: decrease

Question: And the “scratch-based motility of PANC1 cells” value (PANC1 cells [3])?
Answer: reduction

Question: And the “MTT-based viability of PA03C cells” value (PA03C cells)?
Answer: reduction

Question: And the “MTT-based viability of PAN198 cells” value (PAN198 cells)?
Answer: reduction

Question: What about the “MTT-based viability of PANC1 cells” value (PANC1 cells [1]; 25 μg/mL peptide, incubated two days, vs control) of the same molecule?
Answer: reduction

Question: What about the “EdU-based proliferation of PANC1 cells” value (PANC1 cells [4]) of the same molecule?
Answer: discernible decrease

Question: What about the “inhibitory effect on mesenchymal stem cells (MSC growth)” value (MSCs) of the same molecule?
Answer: no inhibitory effect

Question: And the “transwell-based invasion of PANC1 cells” value (PANC1 cells [5])?
Answer: discernible decrease

Question: And the PDAC fragment size ([2]; 25 μg/mL P04, 96 h, n = 8, patient tissue ex vivo)?
Answer: notable reduction

B1: rhALDOA: human recombinant ALDOA protein (MBS8248528, MyBioSource) (protein, UniProt P04075 2-364, looked up)
Fructose-bisphosphate …: PYQYPALTPEQKKELSDIAHRIVAPGKGILAADESTGSIAKRLQSIGTENTEENRRFYRQLLLTADDRVNPCIGGVILFHETLYQKADDGRPFPQVIKSKGGVVGIKVDKGVVPLAGTNGETTTQGLDGLSERCAQYKKDGADFAKWRCVLKIGEHTPSALAIMENANVLARYASICQQNGIVPIVEPEILPDGDHDLKRCQYVTEKVLAAVYKALSDHHIYLEGTLLKPNMVTPGHACTQKFSHEEIAMATVTALRRTVPPAVTGITFLSGGQSEEEASINLNAINKCPLLKPWALTFSYGRALQASALKAWGGKKENLKAAQEEYVKRALANSLACQGKYTPSGQAGAAASESLFVSNHAY
Question: Which K-Ras level (K-Ras; [8]) does the source give for B1 here?
Answer: discernible decreases

Question: And the ALDOA level (ALDOA; [8])?
Answer: discernible decreases

Question: What about the “MTT-based viability of PANC1 cells” value (PANC1 cells [1]; 5 μg/mL recombinant ALDOA protein) of the same molecule?
Answer: notable reduction
